Key:
Format in all cases: physicochemical
[1] = Effect of saturation duration on MT with Yb(9)^3+ (bulk water 1H NMR); details: 5 mM, pH 7.4, 25° C.; saturating pulse of about 2 s or longer centered between amide proton signals, bandwidth 1500 Hz
Method: An eleventh series of experiments was conducted to examine the effect of saturation duration on the magnitude of MT obtained using the Yb(9)^3+ complex. […] The upper series of spectra (a) were obtained while applying a saturating pulse of different duration and centered between the resonance signals of the exchangeable amide protons, with a saturating bandwidth of 1500 Hz. The saturating bandwidth was produced using conventional water elimination technique (i.e., a wet1d pulse sequence). See Varian User Manual; Varian NMR, Palo Alto, Calif.; User Guide, VNMR Version 6.1 software, 1997), incorporated herein by reference. The pulse sequence to produce saturation was modified to include hard loops to shape the pulse train (90° e-burp1, typically repeated from about 0 to about 500 times) with a bandwidth of 1500 Hz (pwwet=3.0 ms and wetpwr=28 db). The lower series (b) of spectra, shown inverted to facilitate comparison to series (a), were obtained while applying the same saturating pulse, but on the opposite side and equal distance away from the bulk water MR signal. As the illustrated in FIG. 26, for a saturating pulse of about 2 s or longer, about a 38% decrease in the bulk water signal was obtained for series (a).

[2] = pH dependence of amide proton (Ha, Hb) lifetimes τM^298 and Δω•τM of Yb(9)^3+
Source text: As indicated by their linewidths, illustrated in FIG. 24, the two exchangeable amide sites have different dependences upon pH. As further illustrated in FIG. 25, Hb exchanges about 1.3 times faster than that of Ha. […] Similar to that discussed above for Ln(1)^3+, either too fast or too slow exchange may produce less MT. For the conditions used to obtain the data presented in Table 2, the maximum MT effect appear to be obtained for Ln(9)^3+ complexes when the exchange limiting regime is about 15.

[3] = 1H NMR spectra of Ln(9)^3+ complexes, exchangeable amide protons
Source text: For certain Ln(9)^3+ complexes, for example, with Ln equal to Yb or Tm, the bound water molecules are ^1H NMR invisible probably due to the fast exchange between the bound water and the bulk water. […] Unfortunately, the NMR signal was invisible, probably due to its fast exchange with the bulk water. However, the eight exchangeable amide protons present as two resonance peaks with equivalent intensity, at −14.5 (Ha) and −17.7 (Hb) ppm, respectively, are visible.

## NC(=O)CN1CCN(CC(N)=O)CCN(CC(N)=O)CCN(CC(N)=O)CC1.[Yb+3] [Yb(9)^3+]
[1]
  decrease in the bulk water signal, series (a): ~38%
[2]
  Hb exchanges faster than Ha: about 1.3 times
[2]; 7.05 T, broad range of pH values
  exchange limiting regimes Δω•τM of both amide protons: > 1
[2]; pH 6.46
  τM^298, Ha: 5.00 ms
  τM^298, Hb: 4.00 ms
[2]; pH 6.46, 7.05 T
  Δω•τM^298, Ha: 139.3
  Δω•τM^298, Hb: 133.7
[2]; pH 6.76
  τM^298, Ha: 2.30 ms
  τM^298, Hb: 1.78 ms
[2]; pH 6.76, 7.05 T
  Δω•τM^298, Ha: 64.1
  Δω•τM^298, Hb: 59.5
[2]; pH 7.06
  τM^298, Ha: 1.21 ms
  τM^298, Hb: 0.82 ms
[2]; pH 7.06, 7.05 T
  Δω•τM^298, Ha: 33.6
  Δω•τM^298, Hb: 27.2
[2]; pH 7.21
  τM^298, Ha: 0.92 ms
  τM^298, Hb: 0.72 ms
[2]; pH 7.21, 7.05 T
  Δω•τM^298, Ha: 25.5
  Δω•τM^298, Hb: 24.2
[2]; pH 7.43
  τM^298, Ha: 0.64 ms
  τM^298, Hb: 0.52 ms
[2]; pH 7.43, 7.05 T
  Δω•τM^298, Ha: 17.9
  Δω•τM^298, Hb: 17.4
[2]; pH 7.84
  τM^298, Ha: 0.57 ms
  τM^298, Hb: 0.44 ms
[2]; pH 7.84, 7.05 T
  Δω•τM^298, Ha: 15.9
  Δω•τM^298, Hb: 14.7
[3]
  chemical shift of amide protons, first set (Ha): −14.5 ppm
  chemical shift of amide protons, second set (Hb): −17.7 ppm
